Measured values published in patent publication US8426447B2, “Spiro-tricyclic ring compounds as beta-secretase modulators and methods of use” (Amgen Inc., priority 2008, dated 2013).
“And” between values parts separate entries of the source, which are not always exact repeats. Equal values may be shown once.

Tests used:
BACE1 [1] = biological target: T1, BACE1 (Homo sapiens, UniProt P56817); test: In Vitro Enzymatic BACE FRET (Fluorescence Resonance Energy Transfer) Assay; type: biochemical; conditions: read-out: BACE1 FRET assay
How it was run: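 Buffer 0.05 M acetate pH 4.2 with 10% DMSO final and 100 uM genapol; reaction started with 50 nM FRET peptide substrate (fluorophore/quencher flanking BACE cleavage site), incubated one hour. Stopped with Tris buffer raising pH to neutrality, then fluorescence read.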

BACE1 [2] = biological target: T1, BACE1; test: In Vitro BACE Cell-based Assay (HEK cell assay): Aβ40 in conditioned medium of cells stably expressing Amyloid Precursor Protein, sandwich ELISA; conditions: read-out: HEK cell assay
How it was run: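 Conditioned medium Aβ40 by ELISA: pAb40 capture 3 h 4° C., biotin-6E10 detection 2 h 4° C., Streptavidin-Europium TRF. IC50 fitted from % control.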

[3] = Table II, Aβ40, 24 h incubation

T1 sequence (P56817 46-501, species assumed): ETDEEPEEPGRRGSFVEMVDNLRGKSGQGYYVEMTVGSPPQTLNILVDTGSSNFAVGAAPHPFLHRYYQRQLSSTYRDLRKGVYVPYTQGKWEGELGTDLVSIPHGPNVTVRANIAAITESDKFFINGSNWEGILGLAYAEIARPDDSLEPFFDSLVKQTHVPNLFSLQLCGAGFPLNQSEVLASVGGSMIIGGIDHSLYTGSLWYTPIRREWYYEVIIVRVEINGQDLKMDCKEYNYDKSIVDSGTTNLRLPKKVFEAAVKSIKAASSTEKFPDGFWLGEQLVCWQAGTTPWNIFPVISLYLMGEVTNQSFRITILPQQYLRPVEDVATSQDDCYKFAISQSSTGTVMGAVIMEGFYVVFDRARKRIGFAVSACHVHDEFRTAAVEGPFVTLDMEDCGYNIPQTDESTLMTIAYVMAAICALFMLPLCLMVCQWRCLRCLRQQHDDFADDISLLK

Cc1ccc(-c2ccc3c(c2)[C@]2(COC(N)=N2)c2cc(-c4cncnc4)ccc2O3)s1 [compound 820]
IC50 (BACE1 [1]; Table IV, class symbols): < 0.1 µM
IC50 (BACE1 [2]; Table IV, class symbols): < 0.1 µM

CC(C)(O)COc1ccc2c(c1)[C@]1(COC(N)=N1)c1cc(-c3ccccc3)ccc1O2 [compound 221]
IC50 (BACE1 [1]; Table III, IC50's in uM ranges): < 0.1 µM
IC50 (BACE1 [2]; Table III, IC50's in uM ranges): 0.1 to 1 µM

COc1ccc2c(c1)C1(COC(N)=N1)c1cc(-c3cccnc3F)ccc1O2 (stereo not shown) [Example 16, 2′-(2-fluoro-3-pyridinyl)-7′-methoxyspiro[1,3-oxazole-4,9′-xanthen]-2-amine]
IC50 (BACE1 [1]; Table 1): 1 to 5 µM
IC50 (BACE1 [2]; Table 1, Aβ40, 24 h incubation): 1 to 5 µM

COC(C)(C)COc1ccc2c(c1)[C@@]1(COC(N)=N1)c1cc(-c3cccnc3)cnc1O2 [compound 983]
IC50 (BACE1 [1]): < 0.1 µM
IC50 (BACE1 [2]): < 0.1 µM

CC(C)(C)COc1ccc2c(c1)[C@]1(COC(N)=N1)c1cc(C(=O)NC3CCC3)ccc1O2 [compound 702]
IC50 (BACE1 [1]): < 0.1 µM
IC50 (BACE1 [2]): 0.1 to 1 µM

NC1=N[C@@]2(CO1)c1cc(-c3cccnc3)ccc1Oc1ncc(C3=CCOCC3)cc12 [compound 664]
IC50 (BACE1 [1]): < 0.1 µM
IC50 (BACE1 [2]): < 0.1 µM

CC(C)(C)CCOc1nccc2c1[C@]1(COC(N)=N1)c1cc(-c3cccnc3)ccc1O2 [compound 932]
IC50 (BACE1 [1]): 0.1 to 1 µM
IC50 (BACE1 [2]): 0.1 to 1 µM

COC(=O)/C=C/c1ccc2c(c1)[C@@]1(COC(N)=N1)c1cc(-c3cncnc3)ccc1O2 [compound 946]
IC50 (BACE1 [1]): 0.1 to 1 µM
IC50 (BACE1 [2]): 0.1 to 1 µM

CC(C)(C)COc1ccc2c(c1)[C@]1(COC(N)=N1)c1cc(-c3cnccc3Cl)ccc1O2 [compound 883]
IC50 (BACE1 [1]; Table IV, class symbols): < 0.1 µM
IC50 (BACE1 [2]; Table IV, class symbols): 0.1 to 1 µM

COC(C)(C)C#Cc1cnc2c(c1)[C@@]1(COC(N)=N1)c1cc(-c3cnccn3)ccc1O2 [compound 694]
IC50 (BACE1 [1]): 1 to 5 µM
IC50 (BACE1 [2]): > 5 µM

NC1=N[C@@]2(CO1)c1cc(-c3cccnc3)ccc1Oc1cnc(C3CCCCC3)cc12 [compound 791]
IC50 (BACE1 [1]): < 0.1 µM
IC50 (BACE1 [2]): 0.1 to 1 µM

CC1(COc2ccc3c(c2)[C@]2(COC(N)=N2)c2cc(-c4cccnc4)cnc2O3)COC1 [compound 165]
IC50 (BACE1 [1]; Table III, IC50's in uM ranges): < 0.1 µM
IC50 (BACE1 [2]; Table III, IC50's in uM ranges): < 0.1 µM

CC(C)C(O)COc1ccc2c(c1)[C@]1(COC(N)=N1)c1cc(-c3cccnc3)ccc1O2 (stereo partly shown) [compound 866]
IC50 (BACE1 [1]; Table IV, class symbols): < 0.1 µM
IC50 (BACE1 [2]; Table IV, class symbols): 0.1 to 1 µM

CC(C)(C)COc1ccc2c(c1)[C@@]1(COC(N)=N1)c1cc(-c3cncc(F)c3)cnc1O2 [compound 753]
IC50 (BACE1 [1]): < 0.1 µM
IC50 (BACE1 [2]): < 0.1 µM

NC1=N[C@@]2(CO1)c1cc(-c3cncnc3)ccc1Oc1ccc(-c3cccc(OC(F)(F)F)c3)cc12 [compound 839]
IC50 (BACE1 [1]; Table IV, class symbols): < 0.1 µM
IC50 (BACE1 [2]; Table IV, class symbols): 1 to 5 µM

Cc1ncccc1-c1ccc2c(c1)[C@@]1(COC(N)=N1)c1cc(OCC(C)(C)C)ccc1O2 [Example 79, (4S)-2′-(2,2-dimethylpropoxy)-7′-(2-methyl-3-pyridinyl)spiro[1,3-oxazole-4,9′-xanthen]-2-amine]
IC50 (BACE1 [1]; Table II): 0.1 to 1 µM
IC50 (BACE1 [2]; [3]): 0.1 to 1 µM

CC(C)CCCOc1nccc2c1[C@]1(COC(N)=N1)c1cc(-c3cccnc3)ccc1O2 [compound 842]
IC50 (BACE1 [1]; Table IV, class symbols): 0.1 to 1 µM
IC50 (BACE1 [2]; Table IV, class symbols): 0.1 to 1 µM

CC1(C)CC(=O)N(c2ccc3c(c2)[C@]2(COC(N)=N2)c2cc(-c4cccnc4)ccc2O3)C1 [compound 749]
IC50 (BACE1 [1]): < 0.1 µM
IC50 (BACE1 [2]): < 0.1 µM

NC1=N[C@@]2(CO1)c1ccccc1Oc1ccc(C(=O)N3CCCCC3)cc12 [compound 639]
IC50 (BACE1 [1]; Table IV, class symbols): > 5 µM
IC50 (BACE1 [2]; Table IV, class symbols): > 5 µM

COc1ccc2c(c1)[C@@]1(COC(N)=N1)c1cc(-c3cccnc3)cnc1O2 [compound 670]
IC50 (BACE1 [1]): 0.1 to 1 µM
IC50 (BACE1 [2]): 1 to 5 µM

CC(C)(C)COc1ccc2c(n1)[C@]1(COC(N)=N1)c1cc(-c3cncnc3)ccc1O2 [compound 733]
IC50 (BACE1 [1]): < 0.1 µM
IC50 (BACE1 [2]): < 0.1 µM

CC(C)(C)COc1ccc2c(c1)[C@]1(COC(N)=N1)c1cc(-c3csc(N4CCCC4)n3)ccc1O2 [compound 215]
IC50 (BACE1 [1]; Table III, IC50's in uM ranges): 1 to 5 µM
IC50 (BACE1 [2]; Table III, IC50's in uM ranges): > 5 µM

CC(C)(C)CC(=O)c1ccc2c(c1)[C@]1(COC(N)=N1)c1cc(-c3cncnc3)ccc1O2 [compound 48, 1-((4S)-2-amino-7′-(5-pyrimidinyl)spiro[1,3-oxazole-4,9′-xanthen]-2′-yl)-3,3-dimethyl-1-butanone]
IC50 (BACE1 [1]; Table II): 0.1 to 1 µM and < 0.1 µM
IC50 (BACE1 [2]; [3]): 0.1 to 1 µM and < 0.1 µM

CC(C)(C)COc1ccc2c(c1)[C@]1(COC(N)=N1)c1cc(-c3cccnc3C(F)(F)F)ccc1O2 [compound 911]
IC50 (BACE1 [1]; Table IV, class symbols): 0.1 to 1 µM
IC50 (BACE1 [2]; Table IV, class symbols): > 5 µM

CC(C)(O)C#Cc1ccc2c(c1)[C@@]1(COC(N)=N1)c1cc(-c3cccnc3)ccc1O2 [151b]
IC50 (BACE1 [1]; Table III, IC50's in uM ranges): < 0.1 µM
IC50 (BACE1 [2]; Table III, IC50's in uM ranges): < 0.1 µM

COc1ccc(-c2ccc3c(c2)[C@@]2(COC(N)=N2)c2cc(OCC(C)(C)C)ccc2O3)c(OC)n1 [compound 909]
IC50 (BACE1 [1]; Table IV, class symbols): 0.1 to 1 µM
IC50 (BACE1 [2]; Table IV, class symbols): > 5 µM
